Reference: BindingDB's records for doi:10.1021/acs.jmedchem.0c00909 (F. Hoffmann-La Roche, 2020)

target: Neurogenic locus notch homolog protein 1 (Homo sapiens, UniProt P46531); experiment: Inhibition of human Notch1 expressed in HEK293 cells coexpressing luciferase reporter measured after 20 hrs by steady-glo chemiluminescence assay
Sequence (P46531 whole entry): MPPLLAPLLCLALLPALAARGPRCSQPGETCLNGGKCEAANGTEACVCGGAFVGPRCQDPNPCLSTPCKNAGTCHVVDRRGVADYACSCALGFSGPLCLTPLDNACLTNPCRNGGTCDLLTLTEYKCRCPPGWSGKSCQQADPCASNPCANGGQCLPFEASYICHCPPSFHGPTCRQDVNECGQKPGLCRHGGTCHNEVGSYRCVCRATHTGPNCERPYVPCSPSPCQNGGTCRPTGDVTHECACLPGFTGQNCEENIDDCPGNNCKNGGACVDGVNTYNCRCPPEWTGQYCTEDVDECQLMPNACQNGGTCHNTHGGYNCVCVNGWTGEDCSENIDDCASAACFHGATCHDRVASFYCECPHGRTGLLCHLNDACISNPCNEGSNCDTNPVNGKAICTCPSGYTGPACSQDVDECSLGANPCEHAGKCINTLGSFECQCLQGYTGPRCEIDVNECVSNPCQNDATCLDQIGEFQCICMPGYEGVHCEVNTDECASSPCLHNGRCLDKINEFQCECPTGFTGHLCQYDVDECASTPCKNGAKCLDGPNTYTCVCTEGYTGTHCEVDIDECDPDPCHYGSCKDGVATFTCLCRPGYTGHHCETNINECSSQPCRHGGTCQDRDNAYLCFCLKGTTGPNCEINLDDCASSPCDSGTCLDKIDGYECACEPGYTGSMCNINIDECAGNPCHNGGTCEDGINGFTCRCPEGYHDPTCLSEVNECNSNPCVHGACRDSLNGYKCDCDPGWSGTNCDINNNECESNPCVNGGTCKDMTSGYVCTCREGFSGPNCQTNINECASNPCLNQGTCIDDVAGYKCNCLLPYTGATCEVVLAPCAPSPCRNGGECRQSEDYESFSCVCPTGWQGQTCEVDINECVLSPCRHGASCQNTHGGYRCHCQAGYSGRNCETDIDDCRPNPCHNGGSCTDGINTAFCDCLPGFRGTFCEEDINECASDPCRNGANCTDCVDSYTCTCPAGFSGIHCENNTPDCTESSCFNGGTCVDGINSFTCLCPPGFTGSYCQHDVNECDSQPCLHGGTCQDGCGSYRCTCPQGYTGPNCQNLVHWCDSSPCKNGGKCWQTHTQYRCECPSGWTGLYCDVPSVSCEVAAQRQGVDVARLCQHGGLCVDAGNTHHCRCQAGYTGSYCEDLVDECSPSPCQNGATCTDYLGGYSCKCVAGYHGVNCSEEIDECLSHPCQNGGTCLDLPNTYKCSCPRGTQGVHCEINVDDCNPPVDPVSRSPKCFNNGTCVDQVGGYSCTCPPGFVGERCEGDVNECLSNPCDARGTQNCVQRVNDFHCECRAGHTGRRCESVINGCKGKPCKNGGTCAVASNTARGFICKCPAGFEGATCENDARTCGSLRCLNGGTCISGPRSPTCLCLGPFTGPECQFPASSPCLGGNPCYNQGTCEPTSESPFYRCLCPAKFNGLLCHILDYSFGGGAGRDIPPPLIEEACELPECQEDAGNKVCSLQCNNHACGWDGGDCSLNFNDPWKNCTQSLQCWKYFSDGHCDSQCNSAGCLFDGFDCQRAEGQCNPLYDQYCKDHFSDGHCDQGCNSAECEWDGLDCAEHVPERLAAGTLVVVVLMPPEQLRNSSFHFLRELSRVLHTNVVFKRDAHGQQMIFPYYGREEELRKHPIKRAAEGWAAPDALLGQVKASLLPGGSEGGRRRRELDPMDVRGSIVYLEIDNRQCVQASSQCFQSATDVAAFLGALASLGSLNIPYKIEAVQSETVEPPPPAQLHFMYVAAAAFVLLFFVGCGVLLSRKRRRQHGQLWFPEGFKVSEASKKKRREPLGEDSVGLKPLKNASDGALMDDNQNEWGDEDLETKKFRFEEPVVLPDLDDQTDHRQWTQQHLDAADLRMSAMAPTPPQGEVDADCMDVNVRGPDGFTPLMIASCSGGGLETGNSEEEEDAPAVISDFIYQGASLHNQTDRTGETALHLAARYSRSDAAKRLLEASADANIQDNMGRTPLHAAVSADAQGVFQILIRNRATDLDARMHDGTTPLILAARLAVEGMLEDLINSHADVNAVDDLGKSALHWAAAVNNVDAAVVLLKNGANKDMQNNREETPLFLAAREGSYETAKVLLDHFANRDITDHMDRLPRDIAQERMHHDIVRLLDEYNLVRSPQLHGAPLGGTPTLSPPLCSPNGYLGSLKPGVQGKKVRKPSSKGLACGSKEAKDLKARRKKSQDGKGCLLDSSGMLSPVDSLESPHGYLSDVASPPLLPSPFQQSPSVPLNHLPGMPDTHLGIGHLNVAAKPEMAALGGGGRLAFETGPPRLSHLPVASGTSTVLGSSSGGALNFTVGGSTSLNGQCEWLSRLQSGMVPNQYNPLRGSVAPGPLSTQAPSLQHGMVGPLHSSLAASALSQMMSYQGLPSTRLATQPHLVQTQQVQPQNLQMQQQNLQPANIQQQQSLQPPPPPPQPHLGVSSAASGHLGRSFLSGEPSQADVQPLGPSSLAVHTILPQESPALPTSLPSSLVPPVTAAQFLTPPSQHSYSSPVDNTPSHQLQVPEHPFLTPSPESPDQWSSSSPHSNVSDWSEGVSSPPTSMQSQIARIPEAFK

IC50, > 10 µM:
Cc1noc(N2C[C@H]3CC[C@@H](C2)[C@@H]3Nc2nc3c(OCC(F)(F)F)ccc(C(F)(F)F)n3n2)n1
Cc1cc(N2C[C@H]3CC[C@@H](C2)[C@@H]3Nc2nc3c(OCC(F)F)ccc(C(F)(F)F)n3n2)ncn1
Cc1nnc(N2C[C@H]3CC[C@@H](C2)[C@@H]3Nc2nc3c(O[C@@H](C)C(F)(F)F)ccc(C(F)(F)F)n3n2)o1
